Test results published in patent US7709498B2, “Quinoline derivatives as antibacterial agents” (Janssen Pharmaceutica N.V., priority 2005, dated 2010).
In brackets after ≈: the same amount, converted by molar mass. Each block holds one compound with its values, some of them ahead of it.

What was measured:
Format in all cases: cell-based
[1] = tested on: Streptococcus pneumoniae (ATCC6305); assay: Microtitre plate assay, IC90 determination, SPN 6305; conditions: 90% inhibitory concentration for bacterial growth, 37° C., resazurin fluorescence; for IC90 (μg/ml) SPN 6305: 24 hours; for IC90: Streptococcus pneumoniae, ATCC6305, 24 h, read-out: IC90 (μg/ml) SPN 6305
Protocol: (§1) The bacteria used in this study were grown overnight in flasks containing 100 ml Mueller-Hinton Broth (Becton Dickinson—cat. no. 275730) in sterile de-ionized water, with shaking, at 37° C. Stocks (0.5 ml/tube) were stored at −70° C. until use. Bacteria titrations were performed in microtiter plates to detect the TCID50, in which the TCID50 represents the dilution that gives rise to bacterial growth in 50% of inoculated cultures.
(§2) In general, an inoculum level of approximately 100 TCID50 was used for susceptibility testing.
(§3) Flat-bottom, sterile 96-well plastic microtiter plates were filled with 180 μl of sterile deionized water, supplemented with 0.25% BSA. Subsequently, stock solutions (7.8× final test concentration) of compounds were added in 45 μl volumes in column 2. Serial five-fold dilutions (45 μl in 180 μl) were made directly in the microtiter plates from column 2 to reach column 11. Untreated control samples with (column 1) and without (column 12) inoculum were included in each microtiter plate. Depending on the bacteria type, approximately 10 to 60 CFU per well of bacteria inoculum (100 TCID50), in a volume of 100 μl in 2.8× Mueller-Hinton broth medium, was added to the rows A to H, except column 12. The same volume of broth medium without inoculum was added to column 12 in row A to H. The cultures were incubated at 37° C. for 24 hours under a normal atmosphere (incubator with open air valve and continuous ventilation). At the end of incubation, one day after inoculation, the bacterial growth was quantitated fluorometrically. Therefore resazurin (0.6 mg/ml) was added in a volume of 20 μl to all wells 3 hours after inoculation, and the plates were re-incubated overnight. A change in colour from blue to pink indicated the growth of bacteria. The fluorescence was read in a computer-controlled fluorometer (Cytofluor Biosearch) at an excitation wavelength of 530 nm and an emission wavelength of 590 nm. The % growth inhibition achieved by the compounds was calculated according to standard methods. The IC90 (expressed in μg/ml) was defined as the 90% inhibitory concentration for bacterial growth.
(§4) BSU 3639 means Bacillus subtilis (ATCC43639); ECO 25922 means Escherichia coli (ATCC25922); EFA 14506 means Enterococcus faecalis (ATCC14506); EFA 29212 means Enterococcus faecalis (ATCC29212); LMO 49594 means Listeria monocytogenes (ATCC49594); PAE 27853 means Pseudomonas aeruginosa (ATCC27853); SMU 33402 means Streptococcus mutans (ATCC33402); SPN 6305 means Streptococcus pneumoniae (ATCC6305); SPY 8668 means Streptococcus pyogens (ATCC8668); STA 43300 means Staphylococcus aureus (ATCC43300); STA 25923 means Staphylococcus aureus (ATCC25923); STA 29213 means Staphylococcus aureus (ATCC29213); STA RMETH means methicilline resistant Staphylococcus aureus (MRSA) (a clinical isolate from the University of Antwerp). ATCC means American type tissue culture.

[2] = tested on: methicilline resistant Staphylococcus aureus (MRSA) (a clinical isolate from the University of Antwerp); assay: Microtitre plate assay, IC90 determination, STA RMETH; conditions: 90% inhibitory concentration for bacterial growth, 37° C., resazurin fluorescence; for IC90 (μg/ml) STA RMETH: 24 hours
Protocol: as §1, §2, §3, §4

[3] = tested on: Pseudomonas aeruginosa (ATCC27853); assay: Microtitre plate assay, IC90 determination, PAE 27853; conditions: 90% inhibitory concentration for bacterial growth, 37° C., 24 hours, resazurin fluorescence
Protocol: as §1, §2, §3, §4

[4] = tested on: Staphylococcus aureus (ATCC25923); assay: Microtitre plate assay, IC90 determination, STA 25923; conditions: 90% inhibitory concentration for bacterial growth, 37° C., resazurin fluorescence; for IC90 (μg/ml) STA 25923: 24 hours
Protocol: as §1, §2, §3, §4

[5] = tested on: Listeria monocytogenes (ATCC49594); assay: Microtitre plate assay, IC90 determination, LMO 49594; conditions: 90% inhibitory concentration for bacterial growth, 37° C., 24 hours, resazurin fluorescence
Protocol: as §1, §2, §3, §4

[6] = tested on: Streptococcus pyogens (ATCC8668); assay: Microtitre plate assay, IC90 determination, SPY 8668; conditions: 90% inhibitory concentration for bacterial growth, 37° C., 24 hours, resazurin fluorescence
Protocol: as §1, §2, §3, §4

[7] = tested on: Staphylococcus aureus (ATCC43300); assay: Microtitre plate assay, IC90 determination, STA 43300; conditions: 90% inhibitory concentration for bacterial growth, 37° C., 24 hours, resazurin fluorescence
Protocol: as §1, §2, §3, §4

[8] = tested on: Streptococcus mutans (ATCC33402); assay: Microtitre plate assay, IC90 determination, SMU 33402; conditions: 90% inhibitory concentration for bacterial growth, 37° C., resazurin fluorescence; for IC90 (μg/ml) SMU 33402: 24 hours
Protocol: as §1, §2, §3, §4

[9] = tested on: Enterococcus faecalis (ATCC29212); assay: Microtitre plate assay, IC90 determination, EFA 29212; conditions: 90% inhibitory concentration for bacterial growth, 37° C., 24 hours, resazurin fluorescence
Protocol: as §1, §2, §3, §4

[10] = tested on: Enterococcus faecalis (ATCC14506); assay: Microtitre plate assay, IC90 determination, EFA 14506; conditions: 90% inhibitory concentration for bacterial growth, 37° C., resazurin fluorescence; for IC90 (μg/ml) EFA 14506: 24 hours; for IC90: Enterococcus faecalis, ATCC14506, 24 h, read-out: IC90 (μg/ml) EFA 14506
Protocol: as §1, §2, §3, §4

[11] = tested on: Bacillus subtilis (ATCC43639); assay: Microtitre plate assay, IC90 determination, BSU 43639; conditions: 90% inhibitory concentration for bacterial growth, 37° C., resazurin fluorescence; for IC90: Bacillus subtilis, ATCC43639, 24 h, read-out: IC90 (μg/ml) BSU 43639
Protocol: as §1, §2, §3, §4

SMILES: COc1nc2ccc(Br)cc2cc1C(c1ccccc1)C(O)(CCN1CCN(C)CC1)c1ccc2ccccc2c1 (racemic) [Compound 137]
IC90 (μg/ml) SPN 6305 [1]: 23.8 µg/mL (≈ 39 µM)
IC90 (μg/ml) STA RMETH [2]: 21.2 µg/mL (≈ 34.7 µM)
IC90 (μg/ml) PAE 27853 [3]: 21.2 µg/mL (≈ 34.7 µM)
IC90 (μg/ml) STA 25923 [4]: 8.4 µg/mL (≈ 13.8 µM)

SMILES: COc1nc2ccc(Br)cc2cc1C(c1ccccc1)C(O)(CCN1CCCCC1)c1cccc2ccccc12 (centres unmarked) [Compound 145]
IC90 [1]: 9.4 µg/mL (≈ 15.8 µM)
IC90 [10]: 23.7 µg/mL (≈ 39.8 µM)

SMILES: COc1nc2ccc(Br)cc2cc1C(c1ccccc1)C(O)(CCN1CCN(C)CC1)c1cc(Br)cc2ccccc12 (racemic) [Compound 151]
IC90 (μg/ml) STA RMETH [2]: 15.4 µg/mL (≈ 22.3 µM)
IC90 (μg/ml) EFA 14506 [10]: 15.4 µg/mL (≈ 22.3 µM)

Now from value to compound, other results behind:

IC90 (μg/ml) SPN 6305 [1]: 6.2 µg/mL (≈ 11.2 µM)
IC90 (μg/ml) LMO 49594 [5]: 2.5 µg/mL (≈ 4.5 µM)
IC90 (μg/ml) SPY 8668 [6]: 2.2 µg/mL (≈ 3.96 µM)
IC90 (μg/ml) STA 43300 [7]: 5.0 µg/mL (≈ 9 µM)
IC90 (μg/ml) PAE 27853 [3]: 12.4 µg/mL (≈ 22.3 µM)
IC90 (μg/ml) SMU 33402 [8]: 12.4 µg/mL (≈ 22.3 µM)
IC90 (μg/ml) EFA 29212 [9]: 5.0 µg/mL (≈ 9 µM)
IC90 (μg/ml) EFA 14506 [10]: 24.8 µg/mL (≈ 44.6 µM)
IC90 (μg/ml) BSU 43639 ([11]; 24 hours): 24.8 µg/mL (≈ 44.6 µM)
SMILES: COc1nc2ccc(Br)cc2cc1C(c1ccccc1)C(O)(CCN(C)C)c1cccc2ccccc12 (centres unmarked) [Compound 15]

IC90 (μg/ml) SPN 6305 [1]: 5.9 µg/mL (≈ 11.3 µM)
IC90 (μg/ml) LMO 49594 [5]: 2.3 µg/mL (≈ 4.41 µM)
IC90 (μg/ml) SPY 8668 [6]: 2.6 µg/mL (≈ 4.99 µM)
IC90 (μg/ml) STA 43300 [7]: 5.9 µg/mL (≈ 11.3 µM)
IC90 (μg/ml) PAE 27853 [3]: 11.7 µg/mL (≈ 22.4 µM)
IC90 (μg/ml) SMU 33402 [8]: 10.4 µg/mL (≈ 19.9 µM)
IC90 (μg/ml) EFA 29212 [9]: 4.6 µg/mL (≈ 8.82 µM)
IC90 (μg/ml) STA 25923 [4]: 13.1 µg/mL (≈ 25.1 µM)
IC90 [10]: 11.7 µg/mL (≈ 22.4 µM)
IC90 [11]: 10.4 µg/mL (≈ 19.9 µM)
SMILES: CSc1nc2ccc(Br)cc2cc1C(c1ccccc1)C(O)(CCN(C)C)c1ccccc1 (centres unmarked) [Compound 33]

IC90 [10]: 12.4 µg/mL (≈ 22.3 µM)
IC90 [11]: 11.1 µg/mL (≈ 20 µM)
SMILES: COc1nc2ccc(Br)cc2cc1C(c1ccccc1)C(O)(CCN(C)C)c1ccc2ccccc2c1 (centres unmarked) [Compound 45]

IC90 [1]: 13.3 µg/mL (≈ 25.2 µM)
IC90 (μg/ml) LMO 49594 [5]: 10.5 µg/mL (≈ 19.9 µM)
IC90 (μg/ml) SPY 8668 [6]: 10.5 µg/mL (≈ 19.9 µM)
IC90 ([8]; Streptococcus mutans, ATCC33402, 24 h, read-out: IC90 (μg/ml) SMU 33402): 10.5 µg/mL (≈ 19.9 µM)
IC90 ([4]; Staphylococcus aureus, ATCC25923, 24 h, read-out: IC90 (μg/ml) STA 25923): 5.9 µg/mL (≈ 11.2 µM)
SMILES: COc1nc2ccc(Br)cc2cc1C(c1ccccc1)C(O)(CCn1ccnc1)c1ccccc1 (centres unmarked) [Compound 49]
IC90 ([2]; Staphylococcus aureus, MRSA, 24 h, read-out: IC90 (μg/ml) STA RMETH): 11.8 µg/mL (≈ 22.3 µM)
